Measurements as given in patent US20230313146A1, “INTESTINAL EPITHELIAL CELL CULTURES” (ARDELYX, INC., priority 2017, published 2023).

How the values were obtained:
Format in all cases: cell-based
[1] = system: human distal colonic cultures; assay: Seeding media comparison in human distal colonic monolayer cultures (TEER, RNA profile); conditions: thiazovivin substituted for Y-27632 in the seeding media (WENRAT)
Description: Organoids were typically grown for 7-12 days before being used to plate monolayer cultures. Organoid cultures embedded in Matrigel were broken apart in growth media and pooled in a 15 mL conical tube. The cells were centrifuged at 600×g for 3 minutes and resuspended in TrypLE Express and placed in a water bath at 37° C. for 3 minutes. The cells were then removed and pipetted up and down for 7 minutes. BM was added to quench the reaction, and the cell suspension was centrifuged at 600×g for 3 minutes, resuspended in BM, and counted.
Media conditions used for murine colon growth and differentiation were optimized for human distal colon cultures using the water-absorption phenotype characteristic of this segment. The effects of seeding and differentiation media alterations on human distal colon cultures were determined by comparing two seeding medias (WENRAT or WENRNicAST) and three differentiation medias (WENR, ENRA, and ENR). […] Murine colonic growth media (WENR) was altered by removing Wnt3a (W) to generated ENR media, or by removing Wnt3a (W) and adding A83-01 (A) (ENRA). Removal of Wnt3a and addition of A83-01 was necessary for proper differentiation of water-absorbing cultures (FIG. 9B and FIG. 8). […] However, the inclusion of Nic and SB202190 in the WENRNicAST seeding media further suppressed differentiation of secretory cells in human colonic cultures (FIG. 10). […]

[2] = system: K^+ absorption in mouse distal colonic cultures; assay: Mouse distal colon K+ transport screening assay
Description: Ion transport was determined by sampling the apical and basolateral chambers of the Transwell and analyzing these samples on an ion chromatography system (Thermo Fisher ICS-3000 or ICS-5000+) coupled with conductivity detectors. Chromatographic separation of cations was performed using an IonPac CS12A (Dionex) 2×250 mm analytical column with an isocratic elution using 25 mM methanesulfonic acid. Chromatographic separation of anions was performed using an IonPac AS18 (Dionex) 2×250 mm analytical column with an isocratic elution using 35 mM potassium hydroxide. Concentrations were calculated relative to a standard curve for each analyte ion based on retention time and peak area.
An assay was established to measure K^+ transport in mouse distal colonic cultures. Mouse distal colonic monolayer cultures were prepared in 96-well Transwells according to protocol and were used for assay on day 6, 7, or 8 depending on the TEER value of the culture and its water-absorption phenotype. Wells with a TEER value below 450 Ω·cm^2 were not used for assay. […]
To start the assay, 80 μL of apical media was added to triplicate wells per compound and 130 μL of basolateral media was added to the basolateral compartment. […] K^+ and rubidium ion concentrations were determined using ion chromatography. […]

[3] = system: mouse duodenal, jejunal, and ileal cultures; assay: Differentiation of mouse small intestinal monolayer cultures (global gene expression PCC versus tissue, TEER)
Description: Approximately 1 μg of the entire isolated RNA was used to prepare each RNA sequencing library. RNA libraries were prepared using the TruSeq Stranded mRNA library preparation kit (Illumina). Most sequencing data were obtained using a NextSeq500 sequencer (Illumina) (2×75 bp, ˜ 30-40 million reads per sample) and some sequencing was performed using a HiSeq sequencer (Illumina) (2×125 bp, ˜ 25-30 million reads per sample). Transcript counts were obtained using the RNA Express application (RNA-Seq reads aligned with the STAR aligner) on the Illumina BaseSpace website.
Pearson correlation coefficients were determined in Microsoft Excel using the Pearson function comparing the transcript count correlation for all genes between two data sets.
On day 2, fresh W2.5ENRY was added to the cultures, and was replaced on day 4. Confluence of the culture was assessed by measuring the TEER. […]
Therefore, global gene expression by RNA sequencing was obtained for 36 culture conditions, taken 4, 6, and 8 days after seeding the cultures, and compared with the gene expression profiles of mouse jejunal villi and crypts. To simplify analysis and to account for changes in global gene expression rather than relying on a handful of marker genes, the Pearson correlation coefficient (PCC) was calculated for the relationship between the gene expression profiles of cultured cells and of mouse jejunal villus cells. […]

O=C(NCc1ccccc1)c1csc(Nc2ccncn2)n1 [thiazovivin]
TEER of human colonic cultures [1]: higher TEER values
secretory cell differentiation [1]: some suppression of secretory cell differentiation

[O]=[V]([O-])([O-])[O-] [vanadate]
block of K^+ absorption ([2]; 200 μM vanadate, mouse distal colonic cultures): block K^+ absorption completely
Inhibition of K^+ absorption normalized to the mean value of vanadate controls (mean±SD) ([2]; vanadate controls, 200 μM, value of 1 = inhibition equivalent to vanadate): 1.00±0.15

B1: BMP 4: mouse BMP-4 (Peprotech), bone morphogenetic protein used as differentiation promoting factor (protein, UniProt P21275 293-408, looked up)
Bone morphogenetic protein 4: SPKHHPQRSRKKNKNCRRHSLYVDFSDVGWNDWIVAPPGYQAFYCHGDCPFPLADHLNSTNHAIVQTLVNSVNSSIPKACCVPTELSAISMLYLDEYDKVVLKNYQEMVVEGCGCR
correlation of gene expression of cultures with tissues in the jejunum and ileum (PCC) ([3]; 300 ng/mL, dose titration of individual BMPs): strong correlations of gene expression
effectiveness at differentiating mouse duodenal, jejunal, and ileal cultures ([3]; compared with the BMP mixture (BMP 2, 4, and 7)): as effective as the BMP mixture
